Each structure is given as a SMILES string. “And” between values parts separate entries of the source, which are not always exact repeats. Equal entries are not always repeated.

The target in series [1] is T1, dNCS-1 (Drosophila melanogaster, UniProt Q9VWX8).
T1 construct: made in house; host or cells: E. coli
T1 sequence (Q9VWX8 1-187): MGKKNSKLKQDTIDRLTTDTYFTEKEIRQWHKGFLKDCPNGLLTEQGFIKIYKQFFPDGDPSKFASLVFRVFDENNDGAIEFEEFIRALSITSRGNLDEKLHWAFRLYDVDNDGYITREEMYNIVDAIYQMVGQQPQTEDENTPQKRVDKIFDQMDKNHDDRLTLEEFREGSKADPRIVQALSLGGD
Put plainly: Tryptophan emission fluorescence of dNCS-1 at increasing ligand concentrations (apparent Kd). In kind it is binding. The method, then:
Fluorescence-based experiments with 3a–3e were carried out to estimate their affinity to dNCS-1.
Mean ± SD from three independent experiments. The curves represent the least squares fitting of the experimental data to a 1:1 stoichiometry. To properly compare the different curves, intensities were normalized and represented. […] Input represents 1/10 cell lysates before IP. Quantifications of each lane from four experiments are shown below the blots. Bars represent percentage of NCS-1/ Ric8a binding (mean ± SD) normalized to DMSO. […] Mean ± SD from three independent experiments. […] Then, the percentage of picnotic bodies over the total nuclei was analyzed. Mean ± SD from three independent experiments. Paired two-tailed Student’s test ***P˂0.001; **P < 0.01; *P < 0.05. Source data are provided as a Source Data file. IP immunoprecipitation, WB western blot […]
the length of the pass light (L) is 1cm (see Supplementary Table 3 and Supplementary […]
Fluorescence emission experiments. Tryptophan emission fluorescence of dNCS-1 […]
affinity and calculate the apparent dissociation constant, Kd. Fluorescence measurements were performed by Jobin Yvon Floromax4 spectrofluorimeter equipped […]
5% DMSO at 5 °C. The excitation wavelength was fixed at 295 nm, and the emission spectra range were collected over 300-400 nm.
Then, three independent experiments were performed
Fluorescence intensities were normalized and represented as (I0 − I)/I 0. I stands for the observed fluorescence emission at 345 nm (fluorescence maximum), and I0 is the observed fluorescence emission of the protein itself without any small molecule. The apparent dissociation constant was obtained using a least squares algorithm to fit the experimental data to a 1:1 stoichiometry model.6 The fitting was performed with KaleidaGraph Data Analysis Program. […]
Protein expression and purification. Drosophila and human NCS-1 were over-expressed in E. coli and subsequently purified to homogeneity as previously described.9

For series [2], the target named is T1, dNCS-1. The series can be described thus: tr-NOESY, DOSY and 1H-NMR of DCL mixtures in the presence of dNCS-1. In kind it is binding. To be noted: 281 K, up to 15 days. On the procedure: Fig. 4 HPLC-MS and NMR studies of the full dynamic combinatorial library. a DCL chromatograms after 5 h in the absence and in the presence of dNCS-1. Conditions: aldehyde 1 (1.2 µL, 50 mM), 2a–2e (3.6 µL, 50 mM), catalyst (1 µL, 12 M), dNCS-1:1 [1:1], Tris buffer (20 mM, pH 7.4), 1 mM CaCl2, 0.5 M NaCl, 1 mM DTT, T = 4 °C, 2% DMSO. DCC experiments were carried out in triplicate. b 1D-^1H NMR spectrum (red) of the mixture and DOSY experiment (black) of the DCL in the presence of dNCS-1 (281 K, 600 MHz). c Tr-NOESY spectrum of the DCL mixture in the presence of dNCS-1 (mixing time 200 ms, 281 K, 600 MHz). Amplification of the region δ 7.2–8.0 ppm. […]. The new signals that reveal the formation of 3b (aromatic region) and 2c (aliphatic region) are marked with stars. ^1H-STD-NMR (blue) and off-resonance (red) NMR spectra of the mixture 2b + 3c + dNCS-1 (281 K, 600 MHz) after 15 days
DOSY-NMR and tr-NOESY-NMR experiments were also recorded to follow the exchange process.
The experiments were performed on the same samples and spectrometer, at 281 K. The tr-NOESY mixing time was fixed at 200 ms. The DOSY experiments were acquired with 16 gradient increments to a final intensity decay of 90%.

The target in series [3] is T1, dNCS-1. The series can be described thus: Protein-directed DCL, HPLC-MS relative peak area with and without dNCS-1. On the procedure:
The reversibility of the DCL was evident, since an identical equilibrium distribution to that shown in Fig. 4a was obtained when two different starting points were employed. The observed degree of amplification was 3b > 3e ≥ 3d > 3a. The precise composition of the DCL (with and without dNCS-1), was assessed by measuring the relative peak area (RPA). Indeed, the normalized change of RPA was used to quantify the protein influence in the final outcome (Supplementary Figs. 9, 10 and Supplementary Tables 1, 2 and 3)[28]. […] Note that compounds 3a–3e can exist as E/Z isomers of the C = N bond. […].
Aldehyde 1 (1.2 μL, 50 mM, DMSO), the five acylhydrazides 2a–2e (5 × 3.6 μL, 50 mM, DMSO), p-anisidine (1 μL, 12 M, DMSO) and buffer 20 mM Tris, 0.5 M NaCl and 1 mM CaCl2, 1 mM DTT at pH 7.4 (750 μL) in 3.3 % DMSO. The mixture was stabilized in 5 h at 4 °C. HPLC analysis was performed.
Aldehyde 1 (1.2 μL, 50 mM, DMSO), the five acylhydrazides 2a–2e (5 × 3.6 μL, 50 mM, DMSO), p-anisidine (1 μL, 12 mM, DMSO) and dNCS-1 in buffer 20 mM Tris, 0.5 M NaCl and 1 mM CaCl2, 1 mM DTT at pH 7.4 (66.7 μM, 750 μL, 1 eq.). The experiment is in 3.3% DMSO. The mixture was stabilized for 5 h at 4 °C. Then, dNCS-1 was removed by ultrafiltration using an Amicon Ultra filter (0.5–10 KDa). HPLC analysis was performed and the traces were compared with the blank composition.
Supplementary Figure 9. Relative Peak Area of the DCL with and without dNCS1. Aldehyde
1 (1.2 µL, 50 mM), 2a-e (3.6 µL, 50 mM), catalyst (1 µL, 12 M), dNCS-1:1 [1:1], tris buffer (20
mM, pH 7.4), 1 mM CaCl2, 0.5 M NaCl, 1 mM DTT, T = 4 °C, 2% DM SO. Mean relative peak
area (RPA) of each acylhydrazone of the library in the absence (blank) and presence of dNCS-1.
Error bars indicate standard deviation (SD) over three experiments. The calculation is set by the
sum of all peak areas to 100% and assigning each peak its percentage. Source data are provided
R P A N o rm aliz ed V a riation
Supplementary Figure 10. RPA normalized of variation of DCL with and without dNCS1.
Aldehyde 1 (1.2 µL, 50 mM), 2a-e (3.6 µL, 50 mM), catalyst (1 µL, 12 M), dNCS-1:1 [1:1], tris
buffer (20 mM, pH 7.4), 1 mM CaCl2, 0.5 M NaCl, 1 mM DTT, T = 4 °C, 2% DM SO. Error
bars indicate SD over three experiments. Source data are provided as a Source Data file.

The test system of series [4] is Cortical neurons from E14 wild-type mice. Put plainly: Toxicity in primary cultured neurons (percentage of picnotic bodies). The conditions noted are these: C57BL6J, mouse, 24 h. In kind it is cell-based. The source says:
(§1) Mean ± SD from three independent experiments. The curves represent the least squares fitting of the experimental data to a 1:1 stoichiometry. To properly compare the different curves, intensities were normalized and represented. […] Input represents 1/10 cell lysates before IP. Quantifications of each lane from four experiments are shown below the blots. Bars represent percentage of NCS-1/ Ric8a binding (mean ± SD) normalized to DMSO. […] CNS + (green) for Pe > 4.47 × 10^−6 cm s^−1, CNS- (red) for compounds with Pe < 4.47 × 10^–6 cm s^−1. […] Mean ± SD from three independent experiments. […] Then, the percentage of picnotic bodies over the total nuclei was analyzed. Mean ± SD from three independent experiments. Paired two-tailed Student’s test ***P˂0.001; **P < 0.01; *P < 0.05. Source data are provided as a Source Data file. IP immunoprecipitation, WB western blot
Finally, cell toxicity in neurons was quantified as percentage of picnotic bodies for 3b (Fig. 6d).
Cortical neurons were obtained from E14 wt mice (C57BL6J). Mice were maintained in accordance to European law and following Hospital Ramón y Cajal´s animal guidelines. […] Three independent experiments counting cells from three different wells per concentration were performed. To analyzed cell death, neurons were fixed and stained with DAPI.

In series [5] the test system is NCS-1/Ric8a interaction. Set-up: method as in PMID 28119500, PMID 29966094. To be noted: cited from earlier work.
For series [6], the target named is T2, NCS-1/Ric8a interaction (Homo sapiens, UniProt P62166).
T2 construct: expressed in transfected cells; host or cells: HEK293 cells (Dharmacon)
T2 sequence (P62166 2-190 limits assumed): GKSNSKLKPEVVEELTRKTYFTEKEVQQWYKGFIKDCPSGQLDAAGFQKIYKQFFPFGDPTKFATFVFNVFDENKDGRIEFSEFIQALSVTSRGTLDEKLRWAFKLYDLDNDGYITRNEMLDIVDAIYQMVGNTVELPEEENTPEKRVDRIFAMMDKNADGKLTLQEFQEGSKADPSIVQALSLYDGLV
The series can be described thus: Co-IP binding assay of human NCS-1 and V5-tagged Ric8a in transfected HEK cells. To be noted: compound 20 μM. The series is classed as cell-based.
Description: as §1
Binding assays with NCS-1 and Ric8a in co-transfected HEK cells were carried out to study the modulation effect of compounds 3a, 3b and 3d in the protein-protein interaction (Fig. 6b).
hNCS-1 and V5-tagged hRic8a were co-transfected into HEK293 cells (Dharmacon) using Lipofectamine 2000 (Invitrogen)[13]. After 24 h, after transfection, DMSO alone or the compounds dissolved in DMSO (20 μM) were added to the culture cells. Then, 24 h after transfection, cells were lysed with Lysis buffer (150 mM NaCl, 1.0% Nonidet P-40, 50 mM Tris, pH 8.0) in the presence of the compounds (20 μM), whose concentration was maintained throughout the immunoprecipitation assay. Precleared lysates were incubated overnight (12 h) at 4 °C with mouse anti-NCS-1 (1:500; Cell Signaling). Samples were subsequently incubated overnight with Protein-G-Sepharose (Sigma-Aldrich), washed and eluted from the Sepharose. Samples were analyzed by Western blot following standard procedures. […] Original representative western blots are found in Source Data file.

The mark [7] stands for this setting: Ca2+ loaded dNCS-1 0.8 µM, pH 7.9, 5% DMSO, 5 °C, fit to 1:1 stoichiometry, three independent experiments.

With `COCCC(=O)N/N=C/c1ccc([N+](=O)[O-])c(O)c1` [3c], the “apparent Kd” value in series [1] (setting [7]) is recorded as “did not show affinity”. For the same compound, the “binding to dNCS-1 (1H-NMR evolution of the mixture 3c + 2b with dNCS-1)” value in series [2] is “extremely weak or non-binder”. Further, in series [3] (after 5 h, 4 °C, pH 7.4, p-anisidine catalyst), the “degree of amplification in the DCL in presence of dNCS-1” value was “clearly reduced in presence of dNCS-1”. In addition, the “RPA, Blank DCL” value in series [3] (as fraction of total area) was determined as 0.09603. In series [3] (as fraction of total area, with dNCS-1), the “RPA, Templated DCL” value is 0. In addition, the “RPA (%) with protein (templated DCL)” value in series [3] (relative peak area in presence of dNCS-1) came to 0%. Further, the “RPA (%) without protein (blank DCL)” value in series [3] (relative peak area, sum of all peak areas set to 100%) is 9.6% and 9.603%. In addition, the RPA (%), Blank DCL in series [3] (sheet Supplementary Figure 10) was determined as 9.6%. For the same compound, the RPA (%), Templated DCL in series [3] (sheet Supplementary Figure 10, with dNCS-1) was found to be 0%. The “Normalized Change of RPA” value in series [3] (with vs without dNCS-1) is reported as -1.
For `CN(C)CCCN1c2ccccc2Sc2ccc(Cl)cc21` [CPZ, Chlorpromazine, reference compound], the Kd in series [1] (setting [7]) was determined as 12 ± 2 µM. The “Normalized Fluorescence I0-I/I0” value in series [1] (ligand 3.2 μM) stood at 0.266; in series [1] (ligand 6.4 μM), 0.263; in series [1] (ligand 8 μM) it was 0.448; in series [1] (ligand 16 μM), 0.643; in series [1] (ligand 24 μM) it was 0.730; in series [1] (ligand 32 μM), 0.794. Further, the “percentage of picnotic bodies over total nuclei, average” value in series [4] (0.2 μM) stood at 11.1667%; in series [4] (2 μM), 15.1%; in series [4] (10 μM), 22.2333%; in series [4] (20 μM), 38.7667%. The “percentage of picnotic bodies, % exp 2” value in series [4] (0.2 μM) is given as 9.6%; in series [4] (2 μM), 11%; in series [4] (10 μM), 25.7%; in series [4] (20 μM), 29.3%. The “percentage of picnotic bodies, % exp 3” value in series [4] (0.2 μM) is 11.1%; in series [4] (2 μM), 19.3%; in series [4] (10 μM), 15%; in series [4] (20 μM), 39%. Further, the “percentage of picnotic bodies, % exp.1” value in series [4] (0.2 μM) worked out at 12.8%; in series [4] (2 μM), 15%; in series [4] (10 μM), 26%; in series [4] (20 μM) it was 48%. Moreover, the “reported inhibition of the NCS-1/Ric8a interaction” value in series [5] is “mild inhibitor and mild”. In series [6] (compared with DMSO (basal binding 100%)), the “modulation of the NCS-1/Ric8a binding” value was “reduced binding”. Also, the “Densitometry of V5-Ric8a co-immunoprecipitated with NCS-1, exp3” value in series [6] (DMSO in the same experiment 4613104) was determined as 3547054. Further, the “Densitometry of V5-Ric8a co-immunoprecipitated with NCS-1, exp2” value in series [6] (DMSO in the same experiment 9508518) came to 4354560. The “Densitometry of V5-Ric8a co-immunoprecipitated with NCS-1, exp1” value in series [6] (DMSO in the same experiment 19247016) was 3883518.

The values above are taken from publication PMC6595003, “Insights into real-time chemical processes in a calcium sensor protein-directed dynamic library” (Nature Communications, 2019).
